Test results: article PMC3282081, “A Modular Strategy to Prepare Multivalent Inhibitors of Prostate-Specific Membrane Antigen (PSMA)” (Oncotarget, 2011)
“And” between values parts separate entries of the source, which are not always exact repeats. Equal values may be shown once. Read-outs that look alike come from different tables or passages of the source.

Experiments:
[1] = target: T1, PSMA (Homo sapiens, UniProt Q04609); test: fluorescence-based PSMA inhibition assay (NAAG hydrolysis, Amplex Red); type: biochemical; settings: for Ki: LNCaP cell lysates, 4 μM NAAG, Cheng-Prusoff conversion; for increase in binding affinity (Ki) compared to monovalent 1: relative to compound 1
T1 construct: endogenous in cells; host or cells: LNCaP cell lysate
Method: PSMA inhibition constant (Ki) values for 1 - 3 were determined using a fluorescence-based PSMA inhibition assay. […] Compound 6 was radiolabeled with ^99mTc and its biological properties were tested in vivo [34].
The PSMA inhibitory activities of 1 - 3 and [^113/115In]3 were determined using a fluorescence-based assay according to a previously reported procedure. Briefly, lysates of LNCaP cell extracts (25 μL) were incubated with the inhibitor (12.5 μL) in the presence of 4 μM NAAG (12.5 μL) for 120 min. The amount of glutamate released upon hydrolysis of NAAG was measured by incubating with a working solution (50 μL) of the Amplex Red Glutamic Acid Kit (Life Technologies, Grand Island, NY) for 60 min. Fluorescence was measured with a VICTOR3V multilabel plate reader (Perkin Elmer Inc., Waltham, MA) with excitation at 530 nm and emission at 560 nm. […] Assays were performed in triplicate. Enzyme inhibitory constants (Ki values) were generated using the Cheng-Prusoff conversion. Data analysis was performed using GraphPad Prism version 4.00 for Windows (GraphPad Software, San Diego, CA).

[2] = target: T1, PSMA; parameters: method as in earlier work; settings: separate previous experiment; cited from earlier work

T1 sequence (Q04609 whole entry): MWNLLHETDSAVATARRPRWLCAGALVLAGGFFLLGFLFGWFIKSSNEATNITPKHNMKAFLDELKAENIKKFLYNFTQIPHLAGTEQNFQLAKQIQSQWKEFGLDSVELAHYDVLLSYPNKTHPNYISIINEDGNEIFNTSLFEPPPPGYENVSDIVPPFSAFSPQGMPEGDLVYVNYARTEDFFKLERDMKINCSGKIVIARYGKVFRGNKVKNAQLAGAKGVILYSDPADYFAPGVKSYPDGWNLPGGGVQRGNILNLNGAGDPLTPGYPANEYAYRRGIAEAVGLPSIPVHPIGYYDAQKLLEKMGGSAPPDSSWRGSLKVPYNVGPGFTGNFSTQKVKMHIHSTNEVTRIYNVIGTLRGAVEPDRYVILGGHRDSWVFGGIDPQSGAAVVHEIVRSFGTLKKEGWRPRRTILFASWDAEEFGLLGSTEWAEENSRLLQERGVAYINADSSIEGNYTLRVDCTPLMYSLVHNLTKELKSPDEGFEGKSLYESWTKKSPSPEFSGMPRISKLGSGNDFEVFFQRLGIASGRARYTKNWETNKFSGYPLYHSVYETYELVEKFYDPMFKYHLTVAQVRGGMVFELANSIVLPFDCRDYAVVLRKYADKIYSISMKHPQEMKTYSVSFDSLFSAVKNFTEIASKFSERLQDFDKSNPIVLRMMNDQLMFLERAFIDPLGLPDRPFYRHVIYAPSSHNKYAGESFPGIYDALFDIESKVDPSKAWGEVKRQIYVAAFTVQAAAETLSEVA

Ki [1]	increase in binding affinity (Ki) compared to monovalent 1 [1]	Compound	Ki [2]
0.9 nM and 0.91 nM	–	[N-]=[N+]=NCCCCC(NC(=O)CCCCCCC(=O)NCCCC[C@H](NC(=O)N[C@@H](CCC(=O)O)C(=O)O)C(=O)O)C(=O)O (stereo partly drawn) [Compound 1, (3S,7S)-26-Azido-5,13,20-trioxo-4,6,12,21-tetraazahexacosane-1,3,7,22-tetracarboxylic acid]	–
0.1 nM	5 fold and ~ 5 fold	NCCCCC(NC(=O)C(CCCCNC(=O)c1cn(CCCCC(NC(=O)CCCCCCC(=O)NCCCC[C@H](NC(=O)N[C@@H](CCC(=O)O)C(=O)O)C(=O)O)C(=O)O)nn1)NC(=O)c1cn(CCCCC(NC(=O)CCCCCCC(=O)NCCCC[C@H](NC(=O)N[C@@H](CCC(=O)O)C(=O)O)C(=O)O)C(=O)O)nn1)C(=O)O (stereo partly drawn) [Compound 2]	–
0.08 nM	11 fold and ~ 11 fold	O=C(O)CC[C@H](NC(=O)N[C@@H](CCCCNC(=O)CCCCCCC(=O)NC(CCCCn1cc(C(=O)NCCCCC(NC(=O)c2cn(CCCCC(NC(=O)CCCCCCC(=O)NCCCC[C@H](NC(=O)N[C@@H](CCC(=O)O)C(=O)O)C(=O)O)C(=O)O)nn2)C(=O)NC(CCCCNC(=O)CN2CCN(CC(=O)O)CCN(CC(=O)O)CCN(CC(=O)O)CC2)C(=O)O)nn1)C(=O)O)C(=O)O)C(=O)O (stereo partly drawn) [Compound 3]	–
–	–	NC(Cc1cn(CCCCC(NC(=O)CCCCCCC(=O)NCCCC[C@H](NC(=O)N[C@@H](CCC(=O)O)C(=O)O)C(=O)O)C(=O)O)nn1)C(=O)O (stereo partly drawn) [Compound 6]	0.92 nM
